This note sets out measurements from US10689378B2, “Triazolopyridine compounds and uses thereof” (Novartis AG, priority 2016, dated 2020).

For test [1], the target named is T1, EED (1-441)-His protein (Homo sapiens, UniProt O75530).
T1 construct: 30 nM EED (1-441)-His protein
Put plainly: EED-H3K27Me3 peptide competition binding assay by AlphaScreen. In a few lines: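 Serially diluted compound (12 points, 3-fold) incubated 20 min with 30 nM EED(1-441)-His and 15 nM biotin-H3K27Me3(19-33) peptide in 25 mM HEPES pH 8, 0.02% Tween-20, 0.5% BSA. Ni-chelate acceptor/streptavidin donor beads (10 μg/mL each) added, 1 h rt dark; 615 nm emission normalized to controls, dose-response fit for IC50.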
For orientation: Bead proximity is the source of the signal in Alpha formats.

In test [2] the test system is H3K27 methylation in G401 cell. Briefly: ELISA (H3K27 methylation) assay in G401 cells. It is filed as cell-based, human. The procedure, abridged: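 G401 cells treated 48 h with 3-fold dilutions (8 or 12 points, top 20 μM). Acid-extracted histones probed by ELISA for H3K27me3 or H3K27me2 with ECL readout, normalized to total H3. Percent inhibition versus DMSO fitted to dose-response curve for IC50.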

Test [3] deals with wild type PRC2 (wtPRC2) complex (Homo sapiens, UniProt O75530). Briefly: EED LC-MS assay (SAH production by PRC2). It is filed as biochemical. Particulars: read-out: (b) IC50, EED LC-MS Qualified. How it is done: Compounds of the present invention were assessed for their ability to inhibit PRC2 activity in a pentameric complex of EZH2, SUZ12, EED, Rbap48 and AEBP in biochemical assays. The ability of compounds of the present invention to inhibit cellular activity of PRC2 was assessed by analysing histone H3 lysine 27 methylation in human cell lines. The ability of compounds of the present invention to inhibit cancers was derived from their ability to modulate activity in human cancer cell lines bearing specific dependence to PRC2 activity to maintain cancerous growth.
wild type PRC2 (wtPRC2) complex, sequence (O75530 whole entry): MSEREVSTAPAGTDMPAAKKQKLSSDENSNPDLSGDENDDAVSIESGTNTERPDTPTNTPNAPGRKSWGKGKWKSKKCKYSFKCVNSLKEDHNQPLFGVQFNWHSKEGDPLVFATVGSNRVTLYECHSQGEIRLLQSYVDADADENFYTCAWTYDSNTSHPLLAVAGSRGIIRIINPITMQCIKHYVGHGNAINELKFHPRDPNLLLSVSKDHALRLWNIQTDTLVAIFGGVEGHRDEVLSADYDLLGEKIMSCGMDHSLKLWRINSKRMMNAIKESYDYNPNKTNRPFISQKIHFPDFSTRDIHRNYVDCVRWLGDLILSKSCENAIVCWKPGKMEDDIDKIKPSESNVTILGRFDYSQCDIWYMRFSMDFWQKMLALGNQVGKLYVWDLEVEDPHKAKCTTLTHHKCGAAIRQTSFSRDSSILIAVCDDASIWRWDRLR
wild type PRC2 (wtPRC2) complex, sequence (Q15910 whole entry partner): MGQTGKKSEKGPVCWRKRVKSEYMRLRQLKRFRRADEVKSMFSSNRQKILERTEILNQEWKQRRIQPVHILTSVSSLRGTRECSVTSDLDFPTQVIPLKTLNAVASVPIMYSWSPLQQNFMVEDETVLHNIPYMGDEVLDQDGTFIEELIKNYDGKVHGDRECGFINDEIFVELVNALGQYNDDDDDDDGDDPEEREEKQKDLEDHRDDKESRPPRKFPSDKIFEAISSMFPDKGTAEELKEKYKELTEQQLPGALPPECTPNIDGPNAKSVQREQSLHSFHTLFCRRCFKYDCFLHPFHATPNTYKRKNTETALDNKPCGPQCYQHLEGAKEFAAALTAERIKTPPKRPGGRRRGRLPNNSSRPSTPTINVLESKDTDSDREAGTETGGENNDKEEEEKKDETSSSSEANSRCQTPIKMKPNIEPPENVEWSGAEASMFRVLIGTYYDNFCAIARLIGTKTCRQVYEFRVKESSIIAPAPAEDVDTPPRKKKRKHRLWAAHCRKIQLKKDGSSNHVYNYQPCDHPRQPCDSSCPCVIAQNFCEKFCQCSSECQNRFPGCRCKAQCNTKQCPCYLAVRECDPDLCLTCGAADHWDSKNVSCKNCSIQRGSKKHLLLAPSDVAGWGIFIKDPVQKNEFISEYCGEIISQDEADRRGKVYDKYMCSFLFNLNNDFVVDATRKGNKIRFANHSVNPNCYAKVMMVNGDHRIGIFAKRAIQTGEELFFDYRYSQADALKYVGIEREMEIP
wild type PRC2 (wtPRC2) complex, sequence (Q15022 whole entry partner): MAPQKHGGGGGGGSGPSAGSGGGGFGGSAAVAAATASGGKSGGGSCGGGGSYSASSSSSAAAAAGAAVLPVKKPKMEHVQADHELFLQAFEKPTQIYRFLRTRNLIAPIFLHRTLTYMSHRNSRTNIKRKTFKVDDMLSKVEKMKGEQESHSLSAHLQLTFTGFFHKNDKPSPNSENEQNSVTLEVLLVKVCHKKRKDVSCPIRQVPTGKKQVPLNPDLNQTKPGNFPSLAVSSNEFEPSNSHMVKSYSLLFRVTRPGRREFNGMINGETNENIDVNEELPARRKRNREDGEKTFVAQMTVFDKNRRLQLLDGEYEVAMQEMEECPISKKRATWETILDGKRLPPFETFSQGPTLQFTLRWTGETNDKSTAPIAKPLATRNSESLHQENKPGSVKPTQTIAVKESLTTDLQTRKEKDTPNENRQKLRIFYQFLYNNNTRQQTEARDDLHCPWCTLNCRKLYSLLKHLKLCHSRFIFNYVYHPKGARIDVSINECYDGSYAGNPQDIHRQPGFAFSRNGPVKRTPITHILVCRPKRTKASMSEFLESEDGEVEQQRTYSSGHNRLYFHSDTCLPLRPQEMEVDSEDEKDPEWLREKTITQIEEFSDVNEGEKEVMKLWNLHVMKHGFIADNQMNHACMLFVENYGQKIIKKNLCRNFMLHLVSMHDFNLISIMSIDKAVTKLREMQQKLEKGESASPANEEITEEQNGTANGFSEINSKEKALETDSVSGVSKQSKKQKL
wild type PRC2 (wtPRC2) complex, sequence (Q09028 whole entry partner): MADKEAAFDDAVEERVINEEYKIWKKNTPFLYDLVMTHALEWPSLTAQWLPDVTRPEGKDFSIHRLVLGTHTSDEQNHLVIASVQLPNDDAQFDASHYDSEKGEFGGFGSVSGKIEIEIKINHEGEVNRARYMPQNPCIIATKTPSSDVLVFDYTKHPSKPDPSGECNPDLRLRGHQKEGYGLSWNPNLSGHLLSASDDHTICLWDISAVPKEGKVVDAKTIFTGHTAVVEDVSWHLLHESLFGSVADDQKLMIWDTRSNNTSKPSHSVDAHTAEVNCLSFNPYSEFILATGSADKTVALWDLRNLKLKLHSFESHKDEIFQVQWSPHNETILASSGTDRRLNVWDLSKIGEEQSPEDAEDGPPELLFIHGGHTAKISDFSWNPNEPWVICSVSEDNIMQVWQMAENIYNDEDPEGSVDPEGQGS
wild type PRC2 (wtPRC2) complex, sequence (Q6ZN18 whole entry partner): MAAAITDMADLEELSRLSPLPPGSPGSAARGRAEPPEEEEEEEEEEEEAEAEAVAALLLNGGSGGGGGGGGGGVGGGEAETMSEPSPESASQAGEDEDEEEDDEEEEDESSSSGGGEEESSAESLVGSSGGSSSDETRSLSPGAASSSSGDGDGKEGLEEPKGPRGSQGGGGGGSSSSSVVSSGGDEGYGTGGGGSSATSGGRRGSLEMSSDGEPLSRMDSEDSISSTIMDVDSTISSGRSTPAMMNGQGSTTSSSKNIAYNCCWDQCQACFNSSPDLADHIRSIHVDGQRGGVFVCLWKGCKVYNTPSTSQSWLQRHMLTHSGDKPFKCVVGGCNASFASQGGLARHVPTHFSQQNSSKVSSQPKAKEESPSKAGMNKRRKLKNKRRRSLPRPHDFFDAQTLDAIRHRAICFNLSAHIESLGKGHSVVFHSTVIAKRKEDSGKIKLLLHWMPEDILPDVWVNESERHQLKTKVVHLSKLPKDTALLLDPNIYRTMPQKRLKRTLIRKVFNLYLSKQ
Representative compounds of the present invention were serially and separately diluted 3-fold in DMSO to obtain a total of eight or twelve concentrations. Then the test compounds at each concentration (120 nL of each) were transferred by Mosquito into a 384-well Perkin Elmer ProxiPlate 384 plus plates. Solutions (6 μL) of 24 nM the wild type PRC2 (wtPRC2) complex and 2 μM SAM in reaction buffer (20 mM Tris, pH 8.0, 0.1% BSA, 0.01% Triton, 0.5 mM DTT) were added to the wells that were then incubated with the test compound for 20 min. A 6 μL solution of 3 μM of the peptide substrate H3K27Me0 (histone H3[21-44]-biotin) in reaction buffer was added to initiate each reaction. The final components in the reaction solution include 12 nM wtPRC2 complex, 1 μM SAM, and 1.5 μM H3K27me0 peptide with varying concentration of the compounds. A positive control consisted of the enzyme, 1 μM SAM and 1.5 μM substrate in the absence of the test compound, and a negative control consisted of 1 μM SAM and 1.5 μM substrate only. Each reaction was incubated at rt for 120 min, then stopped by addition of 3 μL per of quench solution (2.5% TFA with 320 nM d4-SAH). The reaction mixture was centrifuged (Eppendorf centrifuge 5810, Rotor A-4-62) for 2 min at 2000 rpm and read on an API 4000 triple quadrupole mass spec with Turbulon Spray (Applied Biosystem) coupled with Prominence UFLC (Shimadzu). The levels of SAH production were then normalized based on the values coming from the positive and negative controls to give percent enzyme activities. The data were then fit to a dose response equation using the program Helios to get the IC50 values of the test compound.

Where [4] appears, read: read-out: (a) IC50, EED Alphascreen binding Qualified.
Setting [5] is: Homo sapiens, G-401, read-out: (c) IC50, ELISA Qualified.
The mark [6] stands for this setting: EED-H3K27Me3 peptide competition, AlphaScreen, read-out: (a) IC50 EED Alphascreen binding Qualified.
The mark [7] stands for this setting: Homo sapiens, G-401, H3K27 methylation ELISA, read-out: (c) IC50 ELISA Qualified.
Where [8] appears, read: read-out: (a) IC50 EED Alphascreen binding Qualified.
Where [9] appears, read: Homo sapiens, G-401, read-out: (c) IC50 ELISA Qualified.

Like-named read-outs stand apart in the source and are kept apart here.

T1 sequence (O75530 whole entry): as the sequence (O75530 whole entry) above

One may read the IC50 as the concentration that inhibits the measured activity by half. `COc1cccc(F)c1CNc1ccc(-c2ccnn2C)c2nncn12` [Example 1, N-(2-Fluoro-6-methoxybenzyl)-8-(1-methyl-1H-pyrazol-5-yl)-[1,2,4]triazolo[4,3-a]pyridin-5-amine]: the IC50 in test [1] (setting [4]) was 0.0277 µM; in test [2] (setting [5]), 0.0181 µM; in test [3], 0.0112 µM.

Take `COc1cccc(F)c1CNc1ccc(-c2cccnc2C)c2nncn12` [Example 2, N-(2-Fluoro-6-methoxybenzyl)-8-(2-methylpyridin-3-yl)-[1,2,4]triazolo[4,3-a]pyridin-5-amine]: the IC50 in test [1] (setting [4]) is 0.0109 µM; in test [2] (setting [5]), 0.0087 µM; in test [3], 0.0188 µM.

As to `COc1cccc(F)c1CNc1ccc(-c2cnc(C)nc2C)c2nncn12` [Example 3, 8-(2,4-Dimethylpyrimidin-5-yl)-N-(2-fluoro-6-methoxybenzyl)-[1,2,4]triazolo[4,3-a]pyridin-5-amine], the IC50 in test [1] (setting [4]) stood at 0.0175 µM; in test [2] (setting [5]), 0.0107 µM; in test [3] it was 0.0236 µM.

With `COc1cccc(F)c1CNc1ccc(-c2cnc(CC(C)C)nc2C)c2nncn12` [Example 4, N-(2-Fluoro-6-methoxybenzyl)-8-(2-isobutyl-4-methylpyrimidin-5-yl)-[1,2,4]triazolo[4,3a]-pyridin-5-amine], the IC50 was determined as 0.0086 µM in test [1] (setting [4]), 0.0057 µM in test [2] (setting [5]) and 0.0066 µM in test [3].

In the case of `COc1cccc(F)c1CNc1ccc(-c2ccccn2)c2nncn12` [Example 5, N-(2-Fluoro-6-methoxybenzyl)-8-(pyridin-2-yl)-[1,2,4]triazolo[4,3-a]pyridin-5-amine], the values for the IC50 in test [1] (setting [4]), in test [2] (setting [5]) and in test [3] were 0.0482 µM, 0.0426 µM and 0.137 µM, respectively.

In the case of `COc1cccc(F)c1CNc1ccc(-c2ncccc2C)c2nncn12` [Example 6, N-(2-Fluoro-6-methoxybenzyl)-8-(3-methylpyridin-2-yl)-[1,2,4]triazolo[4,3-a]pyridin-5-amine], the IC50 in test [1] (setting [4]) was determined as 0.0909 µM; in test [2] (setting [5]), 0.057 µM; in test [3], 0.149 µM.

`COc1cccc(F)c1CNc1ccc(-n2cc(C)nc2C)c2nncn12` [Example 7, 8-(2,4-Dimethyl-1H-imidazol-1-yl)-N-(2-fluoro-6-methoxybenzyl)-[1,2,4]triazolo[4,3-a]pyridin-5-amine]: the results for the IC50 in test [1] (setting [4]), in test [2] (setting [5]) and in test [3] were 0.0187 µM, 0.0101 µM and 0.0114 µM, respectively.

Regarding `COc1cccc(F)c1CNc1ccc(-c2cncn2C)c2nncn12` [Example 8], the IC50 was found to be 0.0106 µM in test [1] (setting [4]), 0.0043 µM in test [2] (setting [5]) and 0.0352 µM in test [3].

In the case of `COc1cccc(F)c1CNc1ccc(-c2nnc(C)o2)c2nncn12` [Example 9, N-(2-Fluoro-6-methoxybenzyl)-8-(5-methyl-1,3,4-oxadiazol-2-yl)-[1,2,4]triazolo[4,3-a]pyridin-5-amine], the IC50 in test [1] (setting [4]) turned out to be 0.0339 µM; in test [2] (setting [5]), 0.0024 µM; in test [3] it was 0.0624 µM.

Regarding `CCc1nc(-c2ccc(NCc3c(F)cccc3OC)n3cnnc23)no1` [Example 10, 8-(5-Ethyl-1,2,4-oxadiazol-3-yl)-N-(2-fluoro-6-methoxybenzy)-[1,2,4]triazolo[4,3-a]pyridin-5-amine], the IC50 in test [1] (setting [4]) came to 0.0611 µM; in test [2] (read-out: (c) IC50, ELISA Qualified) it was 0.0093 µM; in test [3] it was 0.198 µM.

With `COc1cccc(F)c1CNc1ccc(-c2nc(C)no2)c2nncn12` [Example 11, N-(2-Fluoro-6-methoxybenzyl)-8-(3-methyl-1,2,4-oxadiazol-5-yl)-[1,2,4]triazolo[4,3-a]pyridin-5-amine], the IC50 in test [1] (setting [4]) was 0.0307 µM; in test [2] (setting [5]), 0.0405 µM; in test [3], 0.119 µM.

For `COc1ccc(F)c(CNc2ccc(-c3cccnc3C)c3nncn23)c1` [Example 291, N-(2-fluoro-5-methoxybenzyl)-8-(2-methylpyridin-3-yl)-[1,2,4]triazolo[4,3-a] pyridin-5-amine], the IC50 is 0.184 µM in test [1] (setting [6]) and 0.0849 µM in test [2] (setting [7]).

As for `CCc1ccncc1-c1ccc(NCc2c(F)cc(F)cc2OC)n2cnnc12` [Example 307, N-(2,4-difluoro-6-methoxybenzyl)-8-(4-ethylpyridin-3-yl)-[1,2,4]triazolo[4,3-a] pyridin-5-amine], the figures for the IC50 in test [1] (setting [6]) and in test [2] (setting [7]) were 0.205 µM and 0.226 µM, respectively.

Regarding `COc1cccc(F)c1CNc1c(F)cc(-c2cccnc2C)c2nncn12` [Example 311, 6-fluoro-N-(2-fluoro-6-methoxybenzyl)-4-(2-methylpyridin-3-yl)-[1,2,4] triazolo[4,3-a]pyridin-7-amine], the IC50 in test [1] (setting [6]) worked out at 0.42 µM; in test [2] (setting [7]) it was 0.833 µM.

As to `COc1cc(C)c(-c2ccc(NCc3c(F)cc(F)cc3OC)n3cnnc23)cn1` [Example 318, N-(2,4-difluoro-6-methoxybenzyl)-8-(6-methoxy-4-methylpyridin-3-yl)-[1,2,4] triazolo[4,3-a]pyridin-5-amine], the IC50 in test [1] (setting [6]) and in test [2] (setting [7]) was 0.0716 µM throughout.

Take `COc1cc(F)cc(F)c1CNc1c(F)cc(-c2cccnc2C)c2nncn12` [Example 320, N-(2,4-difluoro-6-methoxybenzyl)-6-fluoro-8-(2-methylpyridin-3-yl)-[1,2,4]triazolo [4,3-a]pyridin-5-amine]: the IC50 is 0.425 µM in test [1] (setting [6]) and 0.434 µM in test [2] (setting [7]).

As for `COc1cc(F)cc(F)c1CNc1c(F)cc(-c2cnc(C)nc2C)c2nncn12` [Example 321, N-(2,4-difluoro-6-methoxybenzyl)-8-(2,4-dimethylpyrimidin-5-yl)-6-fluoro-[1,2,4]triazolo[4,3-a]pyridin-5-amine], the IC50 in test [1] (setting [6]) was 2.66 µM; in test [2] (setting [7]), 1.53 µM.

In the case of `Cc1cccc(F)c1CNc1ccc(-c2cccnc2C)c2nncn12` [Example 331, N-(2-fluoro-6-methylbenzyl)-8-(2-methylpyridin-3-yl)-[1,2,4]triazolo[4,3-a] pyridin-5-amine], the IC50 in test [1] (setting [6]) turned out to be 0.459 µM; in test [2] (setting [7]) it was 0.519 µM.

`COc1cccc(F)c1CNc1ccc(-c2c(C)ccnc2C)c2nncn12` [Example 346, 8-(2,4-dimethylpyridin-3-yl)-N-(2-fluoro-6-methoxybenzyl)-[1,2,4]triazolo[4,3-a] pyridin-5-amine]: the figures for the IC50 in test [1] (setting [8]) and in test [2] (setting [9]) were 0.142 µM and 0.261 µM, respectively.

`COc1cccnc1CNc1ccc(-c2cccnc2C)c2nncn12` [Example 347, N-((3-methoxypyridin-2-yl)methyl)-8-(2-methylpyridin-3-yl)-[1,2,4]triazolo[4,3-a] pyridin-5-amine]: the IC50 is 0.791 µM in test [1] (setting [8]) and 0.771 µM in test [2] (setting [9]).

Take `COc1cnccc1CNc1ccc(-c2cccnc2C)c2nncn12` [Example 360, N-((3-methoxypyridin-4-yl)methyl)-8-(2-methylpyridin-3-yl)-[1,2,4]triazolo[4,3-a] pyridin-5-amine]: the results for the IC50 in test [1] (setting [8]) and in test [2] (setting [9]) were 4.09 µM and 3.04 µM, respectively.

For the compound `COc1cccc(CNc2ccc(-c3cccnc3C)c3nncn23)n1` [Example 364, N-((6-methoxypyridin-2-yl)methyl)-8-(2-methylpyridin-3-yl)-[1,2,4]triazolo[4,3-a] pyridin-5-amine], the IC50 in test [1] (setting [8]) was found to be 0.12 µM; in test [2] (setting [9]), 0.0806 µM.

For the compound `COc1cccc(F)c1CNc1ccc(-c2cn(C)c(C)n2)c2nncn12` [Example 365, 8-(1,2-dimethyl-1H-imidazol-4-yl)-N-(2-fluoro-6-methoxybenzyl)-[1,2,4] triazolo[4,3-a]pyridin-5-amine], the IC50 is 0.197 µM in test [1] (setting [8]) and 0.279 µM in test [2] (setting [9]).

Take `COc1nccc(N)c1CNc1ccc(-c2cccnc2C)c2nncn12` [Example 371, N-((4-amino-2-methoxypyridin-3-yl)methyl)-8-(2-methylpyridin-3-yl)-[1,2,4] triazolo[4,3-a]pyridin-5-amine]: the IC50 in test [1] (setting [8]) was 0.102 µM; in test [2] (setting [9]) it was 0.0927 µM.
